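Five concentrations, 48 hours, 96-well plates. Abbreviation: GI50, concentration required for 50% inhibition of growth. TGI: total growth inhibition.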 Calls of active or inactive are those of the source. Rule as the data show it: active = GI50 below about 0.43 µM; inactive = the rest.
What was measured:
Assay in all cases: NCI tumour cell line growth inhibition, 48 h
HOP-92 NSCLC = system: HOP-92 NSCLC
A498 renal = system: A498 renal
UACC-257 melanoma = system: UACC-257 melanoma
SK-OV-3 ovarian = system: SK-OV-3 ovarian
OVCAR-8 ovarian = system: OVCAR-8 ovarian
OVCAR-4 ovarian = system: OVCAR-4 ovarian
IGROV1 ovarian = system: IGROV1 ovarian
COLO 205 colon = system: COLO 205 colon
SK-MEL-28 melanoma = system: SK-MEL-28 melanoma
U251 CNS = system: U251 CNS
LOX IMVI melanoma = system: LOX IMVI melanoma
HCT-116 colon = system: HCT-116 colon
SF-539 CNS = system: SF-539 CNS
SNB-75 CNS = system: SNB-75 CNS
KM12 colon = system: KM12 colon
M19-MEL melanoma = system: M19-MEL melanoma
CAKI-1 renal = system: CAKI-1 renal
RPMI-8226 leukemia = system: RPMI-8226 leukemia
EKVX NSCLC = system: EKVX NSCLC
MCF7 breast = system: MCF7 breast
HOP-62 NSCLC = system: HOP-62 NSCLC
XF 498 CNS = system: XF 498 CNS
NCI-H522 lung = system: NCI-H522 lung
UO-31 renal = system: UO-31 renal
MALME-3M melanoma = system: MALME-3M melanoma
HT29 colon = system: HT29 colon
SK-MEL-5 melanoma = system: SK-MEL-5 melanoma
HCC-2998 colon = system: HCC-2998 colon
P388 leukemia = system: P388 leukemia
SN12C renal = system: SN12C renal
HL-60(TB) leukemia = system: HL-60(TB) leukemia
OVCAR-5 ovarian = system: OVCAR-5 ovarian
KM20L2 colon = system: KM20L2 colon
CCRF-CEM leukemia = system: CCRF-CEM leukemia
DLD-1 colon = system: DLD-1 colon
K-562 leukemia = system: K-562 leukemia
OVCAR-3 ovarian = system: OVCAR-3 ovarian
NCI-H226 lung = system: NCI-H226 lung
NCI-H460 lung = system: NCI-H460 lung
SK-MEL-2 melanoma = system: SK-MEL-2 melanoma
HCT-15 colon = system: HCT-15 colon
NCI-H23 lung = system: NCI-H23 lung
SW-620 colon = system: SW-620 colon
SN12K1 renal = system: SN12K1 renal
SF-268 CNS = system: SF-268 CNS
SF-295 CNS = system: SF-295 CNS
RXF 393 renal = system: RXF 393 renal
HOP-18 NSCLC = system: HOP-18 NSCLC
SNB-78 CNS = system: SNB-78 CNS
A549 NSCLC = system: A549 NSCLC
MOLT-4 leukemia = system: MOLT-4 leukemia
SNB-19 CNS = system: SNB-19 CNS
DMS 273 small cell lung = system: DMS 273 small cell lung
P388/ADR leukemia = system: P388/ADR leukemia
UACC-62 melanoma = system: UACC-62 melanoma
NCI/ADR-RES ovarian = system: NCI/ADR-RES ovarian
DMS 114 small cell lung = system: DMS 114 small cell lung

C[C@H]1COC(c2ccccn2)=N1
TGI (HOP-92 NSCLC): > 100 µM
TGI (A498 renal): > 100 µM
TGI (UACC-257 melanoma): > 100 µM
TGI (SK-OV-3 ovarian): > 100 µM
TGI (OVCAR-8 ovarian): > 100 µM
TGI (OVCAR-4 ovarian): > 100 µM
TGI (IGROV1 ovarian): > 100 µM
TGI (COLO 205 colon): > 100 µM
TGI (SK-MEL-28 melanoma): > 100 µM
TGI (U251 CNS): > 100 µM
TGI (LOX IMVI melanoma): > 100 µM
TGI (HCT-116 colon): > 100 µM
TGI (SF-539 CNS): > 100 µM
TGI (SNB-75 CNS): > 100 µM
TGI (KM12 colon): > 100 µM
TGI (M19-MEL melanoma): > 100 µM
TGI (CAKI-1 renal): > 100 µM
TGI (RPMI-8226 leukemia): > 100 µM
TGI (EKVX NSCLC): > 100 µM
TGI (MCF7 breast): > 100 µM
TGI (HOP-62 NSCLC): > 100 µM
TGI (XF 498 CNS): > 100 µM
TGI (NCI-H522 lung): > 100 µM
TGI (UO-31 renal): > 100 µM
TGI (MALME-3M melanoma): > 100 µM
TGI (HT29 colon): > 100 µM
TGI (SK-MEL-5 melanoma): > 100 µM
TGI (HCC-2998 colon): > 100 µM
TGI (P388 leukemia): > 100 µM
TGI (SN12C renal): > 100 µM
TGI (HL-60(TB) leukemia): > 100 µM
TGI (OVCAR-5 ovarian): > 100 µM
TGI (KM20L2 colon): > 100 µM
TGI (CCRF-CEM leukemia): > 100 µM
TGI (DLD-1 colon): > 100 µM
TGI (K-562 leukemia): > 100 µM
TGI (OVCAR-3 ovarian): > 100 µM
TGI (NCI-H226 lung): > 100 µM
TGI (NCI-H460 lung): > 100 µM
TGI (SK-MEL-2 melanoma): > 100 µM
TGI (HCT-15 colon): > 100 µM
TGI (NCI-H23 lung): > 100 µM
TGI (SW-620 colon): > 100 µM
TGI (SN12K1 renal): > 100 µM
TGI (SF-268 CNS): > 100 µM
TGI (SF-295 CNS): > 100 µM
TGI (RXF 393 renal): > 100 µM
TGI (HOP-18 NSCLC): > 100 µM
TGI (SNB-78 CNS): > 100 µM
TGI (A549 NSCLC): > 100 µM
TGI (MOLT-4 leukemia): > 100 µM
TGI (SNB-19 CNS): > 100 µM
TGI (DMS 273 small cell lung): > 100 µM
TGI (P388/ADR leukemia): > 100 µM
TGI (UACC-62 melanoma): > 100 µM
TGI (NCI/ADR-RES ovarian): > 100 µM

C=Cc1ccccc1 (tested in a mixture with another compound)
GI50 (HOP-92 NSCLC): 59.5 µg/mL
TGI (HOP-92 NSCLC): > 75 µg/mL
GI50 (A498 renal): > 75 µg/mL
TGI (A498 renal): > 75 µg/mL
GI50 (UACC-257 melanoma): > 75 µg/mL
TGI (UACC-257 melanoma): > 75 µg/mL
GI50 (SK-OV-3 ovarian): > 75 µg/mL
TGI (SK-OV-3 ovarian): > 75 µg/mL
GI50 (OVCAR-8 ovarian): 63.3 µg/mL
TGI (OVCAR-8 ovarian): > 75 µg/mL
GI50 (OVCAR-4 ovarian): > 75 µg/mL
TGI (OVCAR-4 ovarian): > 75 µg/mL
GI50 (IGROV1 ovarian): > 75 µg/mL
TGI (IGROV1 ovarian): > 75 µg/mL
GI50 (SK-MEL-28 melanoma): > 75 µg/mL
TGI (SK-MEL-28 melanoma): > 75 µg/mL
GI50 (U251 CNS): > 75 µg/mL
TGI (U251 CNS): > 75 µg/mL
GI50 (LOX IMVI melanoma): > 75 µg/mL
TGI (LOX IMVI melanoma): > 75 µg/mL
GI50 (HCT-116 colon): > 75 µg/mL
TGI (HCT-116 colon): > 75 µg/mL
GI50 (SF-539 CNS): > 75 µg/mL
TGI (SF-539 CNS): > 75 µg/mL
GI50 (SNB-75 CNS): 28.3 µg/mL
TGI (SNB-75 CNS): > 75 µg/mL
GI50 (KM12 colon): > 75 µg/mL
TGI (KM12 colon): > 75 µg/mL
GI50 (M19-MEL melanoma): > 75 µg/mL
TGI (M19-MEL melanoma): > 75 µg/mL
GI50 (CAKI-1 renal): > 75 µg/mL
TGI (CAKI-1 renal): > 75 µg/mL
GI50 (RPMI-8226 leukemia): > 75 µg/mL
TGI (RPMI-8226 leukemia): > 75 µg/mL
GI50 (EKVX NSCLC): > 75 µg/mL
TGI (EKVX NSCLC): > 75 µg/mL
GI50 (MCF7 breast): > 75 µg/mL
TGI (MCF7 breast): > 75 µg/mL
GI50 (HOP-62 NSCLC): 48.4 µg/mL
TGI (HOP-62 NSCLC): > 75 µg/mL
outcome (XF 498 CNS): inactive
GI50 (NCI-H522 lung): > 75 µg/mL
TGI (NCI-H522 lung): > 75 µg/mL
GI50 (UO-31 renal): > 75 µg/mL
TGI (UO-31 renal): > 75 µg/mL
GI50 (MALME-3M melanoma): > 75 µg/mL
TGI (MALME-3M melanoma): > 75 µg/mL
GI50 (HT29 colon): > 75 µg/mL
TGI (HT29 colon): > 75 µg/mL
GI50 (SK-MEL-5 melanoma): > 75 µg/mL
TGI (SK-MEL-5 melanoma): > 75 µg/mL
GI50 (HCC-2998 colon): > 75 µg/mL
TGI (HCC-2998 colon): > 75 µg/mL
GI50 (P388 leukemia): > 75 µg/mL
TGI (P388 leukemia): > 75 µg/mL
GI50 (SN12C renal): > 75 µg/mL
TGI (SN12C renal): > 75 µg/mL
GI50 (HL-60(TB) leukemia): > 75 µg/mL
TGI (HL-60(TB) leukemia): > 75 µg/mL
GI50 (OVCAR-5 ovarian): > 75 µg/mL
TGI (OVCAR-5 ovarian): > 75 µg/mL
outcome (KM20L2 colon): inactive
GI50 (CCRF-CEM leukemia): > 75 µg/mL
TGI (CCRF-CEM leukemia): > 75 µg/mL
GI50 (DLD-1 colon): > 75 µg/mL
TGI (DLD-1 colon): > 75 µg/mL
GI50 (K-562 leukemia): > 75 µg/mL
TGI (K-562 leukemia): > 75 µg/mL
GI50 (OVCAR-3 ovarian): > 75 µg/mL
TGI (OVCAR-3 ovarian): > 75 µg/mL
GI50 (NCI-H226 lung): > 75 µg/mL
TGI (NCI-H226 lung): > 75 µg/mL
GI50 (NCI-H460 lung): > 75 µg/mL
TGI (NCI-H460 lung): > 75 µg/mL
GI50 (DMS 114 small cell lung): > 75 µg/mL
TGI (DMS 114 small cell lung): > 75 µg/mL
GI50 (SK-MEL-2 melanoma): > 75 µg/mL
TGI (SK-MEL-2 melanoma): > 75 µg/mL
GI50 (HCT-15 colon): > 75 µg/mL
TGI (HCT-15 colon): > 75 µg/mL
GI50 (NCI-H23 lung): > 75 µg/mL
TGI (NCI-H23 lung): > 75 µg/mL
GI50 (SW-620 colon): > 75 µg/mL
TGI (SW-620 colon): > 75 µg/mL
GI50 (SN12K1 renal): > 75 µg/mL
TGI (SN12K1 renal): > 75 µg/mL
GI50 (SF-268 CNS): > 75 µg/mL
TGI (SF-268 CNS): > 75 µg/mL
GI50 (SF-295 CNS): > 75 µg/mL
TGI (SF-295 CNS): > 75 µg/mL
GI50 (RXF 393 renal): > 75 µg/mL
TGI (RXF 393 renal): > 75 µg/mL
outcome (HOP-18 NSCLC): inactive
GI50 (A549 NSCLC): > 75 µg/mL
TGI (A549 NSCLC): > 75 µg/mL
GI50 (MOLT-4 leukemia): > 75 µg/mL
TGI (MOLT-4 leukemia): > 75 µg/mL
GI50 (SNB-19 CNS): > 75 µg/mL
TGI (SNB-19 CNS): > 75 µg/mL
GI50 (DMS 273 small cell lung): > 75 µg/mL
TGI (DMS 273 small cell lung): > 75 µg/mL
GI50 (P388/ADR leukemia): > 75 µg/mL
TGI (P388/ADR leukemia): > 75 µg/mL
GI50 (UACC-62 melanoma): > 75 µg/mL
TGI (UACC-62 melanoma): > 75 µg/mL
GI50 (NCI/ADR-RES ovarian): > 75 µg/mL
TGI (NCI/ADR-RES ovarian): > 75 µg/mL
